1 substance from patent publication US20040038369A1, “Airway-specific trypsin-like enzymes and method of using the same” (priority 2000, published 2004) can be followed below.

Assay [1] deals with T1, PAR-1 (Homo sapiens, UniProt P25116).
T1 construct: expressed in transfected cells; host or cells: Sf9 insect cells infected with recombinant baculovirus VL-PAR (pVL1393)
T1 sequence (P25116 22-425): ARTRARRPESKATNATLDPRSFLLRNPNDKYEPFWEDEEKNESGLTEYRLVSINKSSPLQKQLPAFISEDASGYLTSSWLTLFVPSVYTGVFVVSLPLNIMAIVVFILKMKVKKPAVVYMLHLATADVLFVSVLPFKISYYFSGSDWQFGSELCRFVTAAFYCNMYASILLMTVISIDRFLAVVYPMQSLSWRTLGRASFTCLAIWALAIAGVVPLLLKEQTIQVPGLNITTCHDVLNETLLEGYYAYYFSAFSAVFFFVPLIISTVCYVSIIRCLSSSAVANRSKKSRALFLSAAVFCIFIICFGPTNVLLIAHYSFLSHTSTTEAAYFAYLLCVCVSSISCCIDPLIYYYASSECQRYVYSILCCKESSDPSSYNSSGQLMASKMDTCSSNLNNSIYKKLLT
Nature of the assay: Calcium influx in PAR-1-expressing insect cells. In kind it is cell-based. Particulars: AST 2 units/mL; trypsin, thrombin 0.1 to 10 units/mL; SFLLRNamide 10 to 100 μM.
Description: The above-obtained recombinant baculovirus VL-PAR for expressing the PAR was used to infect 1.0×10^7 Sf9 cells sowed on a 75 cm^2 flask at an MOI=2, and was then left and stationally cultured at 27° C. for 40 hours. After the culture, the infected cells were recovered and then subjected to a calcium influx experiment to-confirm the function of the PAR.
The recovered infected cells (about 5×10^6 cells) were once washed with HEPES-Tyrode buffer solution-Ca^2+ (−) pH 7.4, and then suspended in 5 mL of HEPES-Tyrode buffer solution (containing Fura2-AM, 1 μg/mL) to load the Fura2-AM on the cells at 27° C. for 30 minutes. The suspension was centrifuged at 800 rpm at room temperature for 5 minutes to recover the cells. The cells were twice washed with HEPES-Tyrode buffer solution-Ca^2+ (−) pH 7.4 and then resuspended in 5 mL of HEPES-Tyrode buffer solution-Ca^2+ (−) pH 7.4. The cell suspension was mixed with 5 μL of 1M CaCl2 to give a final concentration of 1 mM CaCl2, and then incubated in a shaded state at room temperature for 5 minutes. The prepared Fura2-AM-loaded infected cells were dispensed into a 96 well plate in a volume of 100 μL/well, further subjected to the dispensation of HEPES-Tyrode buffer solution-C^2+ (+) pH 7.4 in a volume of 80 μL/well, and then assayed with a Fluorescence Drug Screening System (made by Hamamatsu Photonics Co.). Namely, [intensity of 500 nm fluorescent light due to 340 nm exciting light]/[intensity of 500 nm fluorescent light due to 380 nm exciting light] (reflecting the concentration of calcium in the cells) was assayed.

The subject of assay [2] is BEAS-2B. Kind of assay: Calcium influx in airway epithelial cell strain BEAS-2B. In kind it is cell-based. Particulars: AST 2 units/mL; trypsin 10 to 100 units/mL; SFLLRNamide 100 μM. Here is the method:
The Ca^2+ influx due to the AST was examined with respect to an airway epithelial cell strain BEAS-2B. The confluent cells adhered to six 10 cm dishes were used. The cells were peeled with a 10 mM EDTA/HEPES-Tyrode buffer solution for 10 minutes, recovered by a centrifugal treatment at 1,500 rpm at room temperature for 5 minutes, and then resuspended in 10 mL of HEPES-Tyrode buffer solution-Ca^2+ (−) pH 7.4. The recovered cells (about 1.1×10^7 cells) were suspended in 11 mL of HEPES-Tyrode buffer solution (1 μg/mL, containing Fura2-AM) to load the Fura2-AM at 37° C. for 30 minutes. The cells were recovered by a centrifugal treatment at 1,500 rpm at room temperature for 5 minutes, twice washed with HEPES-Tyrode buffer solution-Ca^2+ (−) pH 7.4, and then resuspended in 11 mL of HEPES-Tyrode buffer solution-Ca^2+ (−) pH 7.4. The cell suspension was mixed with […] of 1M CaCl2 to give a final concentration of 1 mM CaCl2, and then incubated in a shaded state at room temperature for 5 minutes. The prepared Fura2-AM-loaded infected cells were dispensed into a 96 well plate in a volume of 100 μL/well, further subjected to the dispensation of HEPES-Tyrode buffer solution-Ca^2+ (+) pH 7.4 in a volume of 80 μL/well, and then assayed with Fluorescence Drug Screening System (Hamamatsu Photonics Co.). […]

The test system of assay [3] is HBEGF (Δ TM)-ALP. Kind of assay: Cleavage of HBEGF (Δ TM)-ALP due to HAST (western blotting). In kind it is biochemical, human. Particulars: recombinant HAST, 37° C. overnight. Here is the method: 293EBNA cell strain was sowed in a density of 9×10^6 cells/10 cm dish, cultured overnight, and then transfected with the human HBEGF-expressing plasmid: pEF9-HBEGF (Δ TM)-ALP prepared in 1). 12 μg of the pEF9-HBEGF (Δ TM)-ALP was subjected to a lipofection with 75 μL of Lipofectamine 2000 (produced by GIBCO-BRL). The lipofection was carried out according to an appended manual. 72 hour later, the cells were peeled with a pipette, and then centrifuged at 3000 rpm at 4° C. for five minutes. The lysate was dissolved in 12 mL of M-PER (produced by PIERCE Corp.), subjected to an SDS-polyacrylamide gel electrophoresis under a non-reducing condition, and then blotted on a nitrocellulose membrane (produced by BIO-RAD Corp.).
The product blotted on the nitrocellulose membrane was treated with 3% BSA-containing PBS at 4° C. overnight and then reacted with the anti-human HB-EGF antibody (produced by GENZYME Corp., an antibody recognizing an EGFR-binding site) diluted with 1% BSA-containing PBS in a concentration of 1 μg/mL, at room temperature for one hour. The nitrocellulose membrane was washed with 0.05% Tween 20-containing PBS three times, and then reacted with Swine Anti-Goat Ig's-ALP antibody (produced by BIOSOURCE Corp.) diluted with 1% BSA-containing PBS in a concentration of 1 μg/mL at room temperature for one hour. […]
A general note: Immunoblotting shows a protein as a band on a membrane.

“HAST: human airway-specific trypsin-like enzyme; propeptide moiety bound to trypsin-like protein moiety via a disulfide bond”: the “Ca2+ influx” value in assay [1] and in assay [2] was “observed” in each case. The “band reactive with the anti-human HB-EGF antibody” value in assay [3] was “shifted to a low molecular weight”.
